The subject of data set [1] is wild-type (AB) zebrafish (Danio rerio). The data set can be described thus: Maximum tolerated concentration (MTC) determination in larval zebrafish. It is filed as in vivo. The conditions noted are these: after 24 h exposure; 5 dpf larvae. As to the method: (§1) Larval zebrafish were produced in the University of Toledo zebrafish core facility and housed in an incubator maintained at 28 °C on a 14:10 h cycle. Fish were acclimated to the testing room conditions the evening prior to testing. All testing took place during the 14 h light cycle after the lights had been on for at least 2 h.
Determination of maximum tolerated concentration (adapted from Berghmans)[52] was completed by placing 5 days post fertilization (dpf) wild-type zebrafish larvae in a 24 well plate at 6 fish per well, and one compound concentration per well. […] Death was determined by the absence of heartbeat. Additional endpoints were used to assess toxicity at non-lethal concentrations such as startle capacity (poke stimulus), abnormalities in swimming behavior (loss of dorsoventral balance), and gross morphological deformities (bent body). […] The MTC determination was used to select three doses of each compound (low, medium, high dose) to be used in behavioral assays.

The test system is the same in data set [2]. Briefly: animal or person. Format: in vivo. The conditions noted are these: for Distance moved / Variance turn angle: compound at 10 µM relative to controls, mean ± s.e.m., N = 12; for MEC: locomotor behaviors. As to the method:
as §1
The movement of larval zebrafish was monitored with the Noldus behavior recording system (Noldus Information Technology, Leesburg VA) and quantified using EthoVision® XT 15 software (Noldus Information Technology, Leesburg VA). Five-dpf zebrafish larvae were exposed to a range of nonlethal concentrations of compounds in a 24-well plate with appropriate controls. The plate was immediately placed in the incubator for a 30-min exposure period. After 30 min, the plate was transferred to the Noldus system and swimming behavior was recorded in 100% light for 30 min to measure spontaneous swimming behavior. The light was switched off for 10 min (dark period) and then switched on for 10 min (light period), which was then repeated for two additional cycles. In total, the larvae were exposed to three cycles of alternating 10 min dark and light periods (100% darkness-to-100% light). Each drug challenge was conducted on three separate plates with n = 6 larvae/dose/plate.
Absolute turn angle (TA) and angular velocity provided measures of the extent of turning behavior, while the intra-individual variance of turn angle quantified how consistently (low variance) or inconsistently (high variance) fish turned. A lowered intra-individual variance of turning reflected repeatedly performing the same turning behavior, a stereotypy.
All data for exposure and the behavioral end points were analyzed by one-way ANOVA (factor: drug concentration) followed by a Dunnett’s multiple comparisons test for post hoc significance between drug concentration and control group. Statistically significant differences are noted as follows; *p < 0.05; **p < 0.01; ***p < 0.001.

For data set [3] the test system is unchanged. Format: in vivo. The conditions noted are these: compound at 10 µM relative to controls; mean ± s.e.m., N = 12.
Data set [4] concerns the target T1, human M1 muscarinic receptors (Homo sapiens, UniProt P11229).
T1 sequence (P11229 1-460): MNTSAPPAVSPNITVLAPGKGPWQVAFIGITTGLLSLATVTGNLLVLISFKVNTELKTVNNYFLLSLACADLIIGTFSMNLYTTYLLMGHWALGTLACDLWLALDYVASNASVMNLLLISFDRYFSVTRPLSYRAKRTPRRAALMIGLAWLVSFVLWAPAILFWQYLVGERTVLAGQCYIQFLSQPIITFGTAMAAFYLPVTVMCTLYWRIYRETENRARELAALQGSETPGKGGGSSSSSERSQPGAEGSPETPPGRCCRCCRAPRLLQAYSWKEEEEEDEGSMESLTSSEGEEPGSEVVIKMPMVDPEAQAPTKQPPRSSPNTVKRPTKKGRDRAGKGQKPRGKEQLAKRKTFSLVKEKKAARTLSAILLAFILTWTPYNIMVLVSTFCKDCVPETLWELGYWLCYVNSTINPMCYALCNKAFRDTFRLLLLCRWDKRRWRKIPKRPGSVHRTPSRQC
The data set can be described thus: [3H]-arachidonic acid release in CHO cells expressing M1 receptors, with and without ACh (single modulator concentration, four-parameter curves). Format: cell-based. Set-up: expressed in transfected cells; host or cells: CHO cells stably transfected with hM1, obtained from Mark Brann's laboratory (NIH). Conditions: for 0.1 µM ACh: response with modulator present divided by response to ACh alone / 100 µM ACh: response with modulator present divided by response to ACh alone / No ACh: agonist effect of the allosteric ligand by itself, fraction of the maximal response that could be elicited by ACh: modulator 10 µM, CHO-hM1, mean ± s.e.m.; for No ACh: agonist effect of the allosteric ligand by itself, fraction of the maximal response that could be elicited by ACh: at least 4 determinations; for Effect on M1 receptor activity and ACh response, in words: modulators at 10 µM (amiodarone 30 µM). As to the method: CHO cells expressing human M1 muscarinic receptors were cultured at 37 °C in a 5% CO2 atmosphere in F12 medium supplemented with 5% fetal bovine serum, 100 units/ml penicillin, and 100 µg/ml streptomycin. These cells were obtained from Mark Brann’s laboratory when they were at NIH and have been in use by us and others for many years.
Measurement of [^3H]AA release was performed as described in Stahl and Ellis[24]. Stably transfected CHO-hM1 cells were seeded on 24-well plates (Greiner Bio-One GmbH, Frickenhausen, Germany) at a density of 5.0 × 10^4 cells/well in 0.5 ml of F-12 medium. Cells were incubated until they attached (approximately 3 h), followed by the addition of [^3H]AA to a final concentration of 0.05 μCi of [^3H]AA per well. The cells were then grown for 16 to 20 h before the assay was performed. [^3H]AA release was measured in Eagle’s basal medium with 20 mM HEPES and 2 mg/ml fatty acid-free bovine serum albumin (EM-BSA). Cells were rinsed twice with EM-BSA, followed by the addition of EM-BSA media containing experimental agents and incubated for 1 h at 37 °C. The assay was terminated by aspiration of the media, and the amount of [^3H]AA released was determined by liquid scintillation counting (Beckman-Coulter LS6500).
Where indicated (Fig. 2), cells were pretreated with POB to reduce the number of available receptors per cell. Stock POB was made up at 10 mM in ethanol and stored at −20C. Each well was pretreated with 0.5 ml of the appropriate concentration in PBS with 1 mM CaCl2 and 1 mM MgCl2 (PBS+ +) for 30 min at 37 °C, followed by 5 washes with PBS+ + . After pretreatment, the normal protocol follows as above.
Tabulated [^3H]AA release data are represented as a fraction of maximal release elicited by ACh or as the fraction of release elicited by the relevant concentration of ACh alone, as indicated. Dose-response curves were normalized to the maximal response of ACh without allosteric ligand. Where indicated, response curves were analyzed using the empirical four-parameter equation: Y=Top+Bottom-Top/1+X/C50^n where X is the concentration of the ligand used, Y is the amount of response, C50 is the concentration of the ligand that produces 50% of the maximal effect, Top and Bottom are the top and bottom plateaus of the curve, and n is related to the Hill slope for the curve. Where indicated, families of response curves were analyzed according to an allosteric operational model[50],[51]: Y=EM[τAA(KB+αβB)+τBBKA]/[τAA(KB+αβB)+τBBKA+AKB+KAKB+KAB+αAB] where EM is the maximal response; A is the concentration of ACh; B is the concentration of the allosteric ligand; τA and τB represent the operational efficacies of A and B, respectively; KA and KB are the equilibrium dissociation constants of A and B; and α and β represent the cooperativities between A and B in terms of binding and activation, respectively. Curve-fitting was carried out with GraphPad Prism, version 5.0 or 6.0 (San Diego CA).

Each structure is given as a SMILES string. Entries after “also recorded” stand apart in the source; their conditions may differ. Marks after values point to notes of the source that are not given here.

`CCCCc1oc2ccccc2c1C(=O)c1cc(I)c(OCCN(CC)C(C)=O)c(I)c1` [Compound 5, N-(2-(4-(2-butylbenzofuran-3-carbonyl)-2,6-diiodophenoxy)ethyl)-N-ethylacetamide]: the “MTC (maximum tolerated concentration)” value in data set [1] amounted to 10 µM. In data set [2], this compound came in with a Distance moved of 108.0 ± 12.9%, a Variance turn angle of 102.5 ± 8.1% and an MEC above 10 µM. Moreover, the Angular velocity in data set [3] worked out at 104.0 ± 10.7%. In addition, in data set [4], the “0.1 µM ACh: response with modulator present divided by response to ACh alone” value turned out to be 1.86 ± 0.42; the “100 µM ACh: response with modulator present divided by response to ACh alone” value is 1.47 ± 0.09; the “No ACh: agonist effect of the allosteric ligand by itself, fraction of the maximal response that could be elicited by ACh” value worked out at 0.22 ± 0.03; the “Effect on M1 receptor activity and ACh response, in words” value (“Effect … in words” below) is listed as “significant intrinsic agonist activity”.
Regarding `COc1ccc(CN2C(=O)C(=O)c3ccccc32)cc1Br` [Compound 8d, 1-(3-bromo-4-methoxybenzyl)indoline-2,3-dione], the “MTC (maximum tolerated concentration)” value in data set [1] amounted to 100 µM. Besides, in data set [2], the Therap. index amounted to 100, the Distance moved is on record as 38.4 ± 4.5*** %, the Variance turn angle was 170.2 ± 15.1*** % and the MEC was determined as 1 µM. The compound further showed an Angular velocity in data set [3] of 201.4 ± 27.5 %. Further, in data set [4], the “0.1 µM ACh: response with modulator present divided by response to ACh alone” value is 1.57 ± 0.06; the “100 µM ACh: response with modulator present divided by response to ACh alone” value is 0.90 ± 0.03; the “No ACh: agonist effect of the allosteric ligand by itself, fraction of the maximal response that could be elicited by ACh” value worked out at 0.04 ± 0.01.
Consider `COc1cc(CN2C(=O)C(=O)c3ccccc32)cc(OC)c1OC` [Compound 8k, 1-(3,4,5-trimethoxybenzyl)indoline-2,3-dione], for which, in data set [1], the “MTC (maximum tolerated concentration)” value worked out at 30 µM. Besides, in data set [2], the Therap. index is given as 30, the Distance moved is listed as 66.2 ± 8.4** %, the Variance turn angle is on record as 126.3 ± 10.8* % and the MEC is 1 µM. This compound gave an Angular velocity in data set [3] of 154.2 ± 18.0 %. Also, in data set [4], the “0.1 µM ACh: response with modulator present divided by response to ACh alone” value is 1.55 ± 0.07; the “100 µM ACh: response with modulator present divided by response to ACh alone” value came out at 0.94 ± 0.06; the “No ACh: agonist effect of the allosteric ligand by itself, fraction of the maximal response that could be elicited by ACh” value is on record as 0.03 ± 0.00.
As for `CCCCc1oc2ccc(NS(C)(=O)=O)cc2c1C(=O)c1ccc(OCCCN(CCCC)CCCC)cc1` [Dronedarone, reference compound], the “MTC (maximum tolerated concentration)” value in data set [1] was found to be 10 µM. For the same compound, in data set [2], the Therap. index turned out to be 1, the Distance moved is listed as 28.3 ± 5.3*** %, the Variance turn angle is listed as 141.6 ± 12.5*** % and the MEC stood at 10 µM. For the same compound, the Angular velocity in data set [3] was 172.8 ± 25.7 %. In data set [4], the “0.1 µM ACh: response with modulator present divided by response to ACh alone” value came out at 0.25 ± 0.05; the “100 µM ACh: response with modulator present divided by response to ACh alone” value stood at 0.75 ± 0.07; the “No ACh: agonist effect of the allosteric ligand by itself, fraction of the maximal response that could be elicited by ACh” value was found to be 0.08 ± 0.01.
As for `COc1ccc(CN2C(=O)C(=O)c3ccccc32)cc1F` [Compound 8h, 1-(3-fluoro-4-methoxybenzyl)indoline-2,3-dione], the “MTC (maximum tolerated concentration)” value in data set [1] turned out to be 30 µM. In addition, in data set [2], the Therap. index is recorded as 10, the Distance moved is listed as 52.7 ± 6.6*** %, the Variance turn angle was 148.0 ± 12.4*** % and the MEC worked out at 3 µM. Also, the Angular velocity in data set [3] is recorded as 201.4 ± 27.5 %. In data set [4], the “0.1 µM ACh: response with modulator present divided by response to ACh alone” value was 1.32 ± 0.10; the “100 µM ACh: response with modulator present divided by response to ACh alone” value amounted to 0.97 ± 0.06; the “No ACh: agonist effect of the allosteric ligand by itself, fraction of the maximal response that could be elicited by ACh” value is on record as 0.05 ± 0.03.
Take `CCCCc1oc2ccccc2c1C(=O)c1ccc(OC)cc1` [Compound 6a, (2-butylbenzofuran-3-yl)(4-methoxyphenyl)methanone]: in data set [1], the “MTC (maximum tolerated concentration)” value is given as 3 µM. Also, in data set [2], the Distance moved was 115.4 ± 11.7%, the Variance turn angle is on record as 115.8 ± 13.0% and the MEC was above 3 µM. The compound also displayed an Angular velocity in data set [3] of 95.9 ± 13.3%. Also, in data set [4], the “0.1 µM ACh: response with modulator present divided by response to ACh alone” value is listed as 1.37 ± 0.07; the “100 µM ACh: response with modulator present divided by response to ACh alone” value is reported as 1.06 ± 0.04; the “No ACh: agonist effect of the allosteric ligand by itself, fraction of the maximal response that could be elicited by ACh” value is 0.05 ± 0.01; the “Effect … in words” value is “inactive”.
For `CCN(CC)CCOc1c(Br)cc(CN2C(=O)C(=O)c3ccccc32)cc1Br.Cl` [Compound 8l, 1-(3,5-dibromo-4-(2-(diethylamino)ethoxy)benzyl)indoline-2,3-dione hydrochloride], the “MTC (maximum tolerated concentration)” value in data set [1] turned out to be 10 µM. Besides, in data set [2], the Therap. index is listed as 1, the Distance moved is 33.5 ± 4.4** %, the Variance turn angle is given as 166.1 ± 12.5*** % and the MEC is reported as 10 µM. In data set [3], the Angular velocity is 184.7 ± 17.0 %. Also, in data set [4], the “0.1 µM ACh: response with modulator present divided by response to ACh alone” value came out at 0.10 ± 0.07; the “100 µM ACh: response with modulator present divided by response to ACh alone” value turned out to be 0.86 ± 0.04; the “No ACh: agonist effect of the allosteric ligand by itself, fraction of the maximal response that could be elicited by ACh” value was 0.05 ± 0.01; the “Effect … in words” value is on record as “only decreased ACh activity; also recorded: decreased ACh potency with little impact on ACh efficacy”.

Source of the values: PMC11213934, “Allosteric modulators of M1 muscarinic receptors enhance acetylcholine efficacy and decrease locomotor activity and turning behaviors in zebrafish” (Scientific Reports, 2024).
